Experimental data taken from patent US20260365653A1, “IRREVERSIBLE MUTEGFR INHIBITORS” (Bayer Aktiengesellschaft, priority 2022, published 2026).
pIC50: −log10 of the molar value.

Tests used:
[1] = biological target: T1, mutEGFR (D770_N771insNPG, T790) (Homo sapiens, UniProt P00533, INS770NPG/T790M); experiment: mutEGFR (D770_N771insNPG, T790) kinase assay; format: biochemical; settings: Table 2a, D770_N771insNPG
T1 construct: exact insNPG construct not described; in-house EGFR proteins were N-terminal GST fusions from baculovirus/insect cells (borders R669-A1210 given only for WT, insSVD, insASV)
T1 sequence (P00533 with tags, fused parts or gaps INS770NPG/T790M limits assumed): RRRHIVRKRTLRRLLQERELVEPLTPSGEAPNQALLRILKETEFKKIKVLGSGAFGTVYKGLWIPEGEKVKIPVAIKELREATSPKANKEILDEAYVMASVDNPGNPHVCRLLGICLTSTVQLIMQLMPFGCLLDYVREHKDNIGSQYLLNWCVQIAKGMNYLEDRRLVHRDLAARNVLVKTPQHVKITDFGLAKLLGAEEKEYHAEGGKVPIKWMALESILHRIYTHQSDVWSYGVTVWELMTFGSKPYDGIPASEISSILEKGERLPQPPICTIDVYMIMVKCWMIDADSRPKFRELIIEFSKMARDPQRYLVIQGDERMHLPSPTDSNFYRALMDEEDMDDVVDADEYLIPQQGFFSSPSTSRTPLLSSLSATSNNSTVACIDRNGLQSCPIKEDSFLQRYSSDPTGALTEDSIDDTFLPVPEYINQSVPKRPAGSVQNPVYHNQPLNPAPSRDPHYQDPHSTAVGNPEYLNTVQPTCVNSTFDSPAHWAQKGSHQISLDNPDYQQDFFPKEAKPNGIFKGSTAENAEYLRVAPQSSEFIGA
Description: The different EGFR proteins used in the biochemical kinase activity inhibition assays were generated inhouse by expression in insect cells using Baculo Virus system and subsequent purification as described in the following paragraphs.
The cDNAs encoding the various protein sequences from human EGFR human (P00533) were optimized for expression in eukaryotic cells and synthesized by the GeneArt Technology at Life Technologies.

BA/F3 (insSVD) cells = experiment: Ba/F3-EGFR-insSVD cell survival assay (Cell Titer-Glo); format: cell-based; settings: Mus musculus, BaF3, 48 h, Table 3a, cell survival, Cell Titer-Glo, with 10 ng/ml EGF, without IL-3
Summary of the method: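 Ba/F3 cells stably expressing retroviral EGFR-insSVD or insSVD T790M, grown without IL-3 on 10 ng/ml EGF, 4000 cells/well. Compound pinned in, 48 h at 37° C. Viability by CellTiter-Glo luminescence.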

[2] = biological target: T2, mutEGFR (D770_N771insSVD) (Homo sapiens, UniProt P00533, DUP768-770); experiment: Exon20-Mutant-EGFR (D770_N771insSVD) kinase assay (TR-FRET); format: biochemical; settings: mutEGFR (D770_N771insSVD) kinase assay IC50, Table 2a; D770_N771insSVD; 2 mM ATP
T2 construct: GST-EGFR #3 (SVD between D770 and N771); made in house; host or cells: Sf9 insect cells (baculovirus)
T2 sequence (P00533 with tags, fused parts or gaps DUP768-770): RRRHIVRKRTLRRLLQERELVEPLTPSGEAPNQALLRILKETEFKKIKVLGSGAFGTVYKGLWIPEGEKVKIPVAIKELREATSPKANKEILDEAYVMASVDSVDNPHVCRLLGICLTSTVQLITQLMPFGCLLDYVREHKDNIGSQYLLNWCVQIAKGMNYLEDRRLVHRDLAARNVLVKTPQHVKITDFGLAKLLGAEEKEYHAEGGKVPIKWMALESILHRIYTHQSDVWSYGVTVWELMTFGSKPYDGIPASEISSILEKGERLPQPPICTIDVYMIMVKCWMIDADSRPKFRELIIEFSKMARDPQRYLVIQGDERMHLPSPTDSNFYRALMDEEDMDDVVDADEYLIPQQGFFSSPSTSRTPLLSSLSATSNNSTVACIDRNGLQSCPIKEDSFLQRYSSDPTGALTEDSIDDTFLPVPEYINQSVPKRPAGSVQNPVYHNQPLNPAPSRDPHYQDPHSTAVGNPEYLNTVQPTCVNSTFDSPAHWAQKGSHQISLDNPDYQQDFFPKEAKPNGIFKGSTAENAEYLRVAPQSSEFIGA

SMILES	pIC50 [1]	pIC50 (BA/F3 (insSVD) cells)	pIC50 [2]
C=CC(=O)N1Cc2c(-c3ccncc3)c(-c3ccc(Cl)cc3)nn2CC1(C)C [Example 211, 1-[2-(4-chlorophenyl)-6,6-dimethyl-3-(pyridin-4-yl)-6,7-dihydropyrazolo[1,5-a]pyrazin-5(4H)-yl]prop-2-en-1-one]	7.39	6.42	7.90
C=CC(=O)N1Cc2c(-c3ccncc3)c(-c3ccc(Cl)c(C)c3)nn2CC1(C)C [Example 212, 1-[2-(4-chloro-3-methylphenyl)-6,6-dimethyl-3-(pyridin-4-yl)-6,7-dihydropyrazolo[1,5-a]pyrazin-5(4H)-yl]prop-2-en-1-one]	8.00	6.53	8.25
CN(C)C/C=C/C(=O)N1Cc2c(-c3ccncc3)c(-c3ccc(F)cc3)nn2C(C)(C)C1 [Example 213, (2E)-4-(dimethylamino)-1-[2-(4-fluorophenyl)-7,7-dimethyl-3-(pyridin-4-yl)-6,7-dihydropyrazolo[1,5-a]pyrazin-5(4H)-yl]but-2-en-1-one]	8.49	6.95	9.04
Cc1cc(-c2nn3c(c2-c2ccncc2)CN(C(=O)/C=C/CN(C)C)CC3(C)C)ccc1Cl [Example 214, (2E)-1-[2-(4-chloro-3-methylphenyl)-7,7-dimethyl-3-(pyridin-4-yl)-6,7-dihydropyrazolo[1,5-a]pyrazin-5(4H)-yl]-4-(dimethylamino)but-2-en-1-one]	9.18	7.16	9.57
CN(C)C/C=C/C(=O)N1Cc2c(-c3ccncc3)c(-c3ccc(Cl)cc3)nn2C(C)(C)C1 [Example 215, (2E)-1-[2-(4-chlorophenyl)-7,7-dimethyl-3-(pyridin-4-yl)-6,7-dihydropyrazolo[1,5-a]pyrazin-5(4H)-yl]-4-(dimethylamino)but-2-en-1-one]	8.92	7.38	9.29
CN(C)C/C=C/C(=O)N1Cc2c(-c3ccncc3)c(-c3ccc(F)cc3)nn2CC1(C)C [Example 216, (2E)-4-(dimethylamino)-1-[2-(4-fluorophenyl)-6,6-dimethyl-3-(pyridin-4-yl)-6,7-dihydropyrazolo[1,5-a]pyrazin-5(4H)-yl]but-2-en-1-one]	6.79	6.38	7.60
CN(C)C/C=C/C(=O)N1Cc2c(-c3ccncc3)c(-c3ccc(Cl)cc3)nn2CC1(C)C [Example 217, (2E)-1-[2-(4-chlorophenyl)-6,6-dimethyl-3-(pyridin-4-yl)-6,7-dihydropyrazolo[1,5-a]pyrazin-5(4H)-yl]-4-(dimethylamino)but-2-en-1-one]	7.22	6.56	8.21
Cc1cc(-c2nn3c(c2-c2ccncc2)CN(C(=O)/C=C/CN(C)C)C(C)(C)C3)ccc1Cl [Example 218, (2E)-1-[2-(4-chloro-3-methylphenyl)-6,6-dimethyl-3-(pyridin-4-yl)-6,7-dihydropyrazolo[1,5-a]pyrazin-5(4H)-yl]-4-(dimethylamino)but-2-en-1-one]	7.79	6.44	8.16
C=CC(=O)N1Cc2c(-c3ccncc3)c(-c3ccc(F)cc3)nn2C(CCO)C1 (stereo not drawn) [Example 223, 1-(2-(4-fluorophenyl)-7-(2-hydroxyethyl)-3-(pyridin-4-yl)-6,7-dihydropyrazolo[1,5-a]pyrazin-5(4H)-yl) prop-2-en-1-one]	8.90	7.74	9.47
C=CC(=O)N1Cc2c(-c3ccncc3)c(-c3ccc(F)cc3)nn2C(CC(N)=O)C1 (stereo not drawn) [Example 224, 2-(5-acryloyl-2-(4-fluorophenyl)-3-(pyridin-4-yl)-4,5,6,7-tetrahydropyrazolo[1,5-a]pyrazin-7-yl) acetamide]	8.12	6.47	8.62
C=CC(=O)N1Cc2c(-c3ccncc3)c(-c3ccc(F)cc3)nn2C(CC(=O)NC)C1 (stereo not drawn) [Example 225, 2-(5-acryloyl-2-(4-fluorophenyl)-3-(pyridin-4-yl)-4,5,6,7-tetrahydropyrazolo[1,5-a]pyrazin-7-yl)-N-methylacetamide]	7.44	6.41	8.00
C=CC(=O)N1Cc2c(-c3ccncc3)c(-c3ccc(F)cc3)nn2C(CC(=O)N(C)C)C1 (stereo not drawn) [Example 226, 2-(5-acryloyl-2-(4-fluorophenyl)-3-(pyridin-4-yl)-4,5,6,7-tetrahydropyrazolo[1,5-a]pyrazin-7-yl)-N,N-dimethylacetamide]	7.63	6.87	7.85
C=CC(=O)N1Cc2c(-c3ccncc3)c(-c3ccc(Cl)cc3F)nn2CC1C (stereo not drawn) [Example 227, 1-(2-(4-chloro-2-fluorophenyl)-6-methyl-3-(pyridin-4-yl)-6,7-dihydropyrazolo[1,5-a]pyrazin-5(4H)-yl) prop-2-en-1-one]	9.40	8.23	9.92
C[C@H]1Cn2nc(-c3ccc(Cl)cc3)c(-c3ccncc3)c2CN1C(=O)/C=C/CN(C)C [Example 245, (2E)-1-[(6S)-2-(4-chlorophenyl)-6-methyl-3-(pyridin-4-yl)-6,7-dihydropyrazolo[1,5-a]pyrazin-5(4H)-yl]-4-(dimethylamino)but-2-en-1-one]	9.58	7.92	9.95
C[C@@H]1Cn2nc(-c3ccc(Cl)cc3)c(-c3ccncc3)c2CN1C(=O)/C=C/CN(C)C [Example 246, (2E)-1-[(6R)-2-(4-chlorophenyl)-6-methyl-3-(pyridin-4-yl)-6,7-dihydropyrazolo[1,5-a]pyrazin-5(4H)-yl]-4-(dimethylamino)but-2-en-1-one]	9.69	7.47	9.88
C=CC(=O)N1Cc2c(-c3ccnc4[nH]cc(C)c34)c(-c3ccc(C(F)(F)F)cc3)nn2C[C@@H]1C [Example 248, 1-[(6S)-6-methyl-3-(3-methyl-1H-pyrrolo[2,3-b]pyridin-4-yl)-2-[4-(trifluoromethyl)phenyl]-6,7-dihydropyrazolo[1,5-a]pyrazin-5(4H)-yl]prop-2-en-1-one]	6.22	7.23	7.11
C=CC(=O)N1Cc2c(-c3ccnc4[nH]cc(C)c34)c(-c3ccc(F)cc3)nn2C[C@@H]1C [Example 251, 1-[(6S)-2-(4-fluorophenyl)-6-methyl-3-(3-methyl-1H-pyrrolo[2,3-b]pyridin-4-yl)-6,7-dihydropyrazolo[1,5-a]pyrazin-5(4H)-yl]prop-2-en-1-one]	8.14	7.61	7.39
Cc1c[nH]c2nccc(-c3c(-c4ccc(C(F)(F)F)cc4)nn4c3CN(C(=O)/C=C/CN(C)C)[C@@H](C)C4)c12 [Example 254, (2E)-4-(dimethylamino)-1-[(6S)-6-methyl-3-(3-methyl-1H-pyrrolo[2,3-b]pyridin-4-yl)-2-[4-(trifluoromethyl)phenyl]-6,7-dihydropyrazolo[1,5-a]pyrazin-5(4H)-yl]but-2-en-1-one]	6.36	7.40	7.44
Cc1c[nH]c2nccc(-c3c(-c4ccc(F)cc4)nn4c3CN(C(=O)/C=C/CN(C)C)[C@@H](C)C4)c12 [Example 257, (2E)-4-(dimethylamino)-1-[(6S)-2-(4-fluorophenyl)-6-methyl-3-(3-methyl-1H-pyrrolo[2,3-b]pyridin-4-yl)-6,7-dihydropyrazolo[1,5-a]pyrazin-5(4H)-yl]but-2-en-1-one]	7.68	7.51	7.16
